Data on 22 compounds can be found in ChEMBL document CHEMBL1157877, “Design, synthesis and biological evaluation of new ionone derivatives as potential neuroprotective agents in cerebral ischemia” (2010).

What all share (format): functional
For assay [1], the system named is Neuron. Kind of assay: Neuroprotective effect against H202-induced Sprague-Dawley rat neuron injury assessed as necrotic cells by annexin V-propidium iodide staining by flow cytometry (reference value: 1.02% +/-0.4%). In general terms: In flow cytometry, cells or beads pass a laser one at a time.
Assay [2] relates to Neuron. Kind of assay: Neuroprotective effect against H202-induced Sprague-Dawley rat neuron injury assessed as late apoptic cells by annexin V-propidium iodide staining by flow cytometry (Rvb= 2.22%+/-0.70%).
Assay [3] deals with Neuron. Description: Neuroprotective effect against H202-induced Sprague-Dawley rat neuron injury assessed as viable cells by annexin V-propidium iodide staining by flow cytometry (reference value: 93.66%+/-2.19%).
The subject of assay [4] is Neuron. Description: Neuroprotective effect against H202-induced Sprague-Dawley rat neuron injury assessed as early apoptic cells by annexin V-propidium iodide staining by flow cytometry (reference value: 3.09% +/- 1.40%).
The test system of assay [5] is Neuron. Kind of assay: Neuroprotective effect against H202-induced Sprague-Dawley rat neuron injury assessed as apoptic cells by annexin V-propidium iodide staining by flow cytometry. Set-up: concentration or dose not given beside the values.
The test system of assay [6] is Neuron. Description: Neuroprotective effect against H202-induced Sprague-Dawley rat neuron injury assessed as cell viability by annexin V-propidium iodide staining by flow cytometry.

On to `CCCOc1ccc(C(C)(O)/C=C/C2C(C)=CCCC2(C)C)cc1` (stereo unspecified), for which the Activity in the assay with Neuron [1] came to 3%; in the assay on Neuron [2] it was 0.7%; in the assay on Neuron [3], 91.9%; in the assay on Neuron [4] it was 4.31%.
On the same counts, the results for `CCCOc1ccc(C(C)(O)/C=C/C2=C(C)CCCC2(C)C)cc1` (stereo unspecified) are 0.52%, 16.6%, 29% and 53.84%.
On to `CCCCCOc1ccc(C(C)(O)/C=C/C2C(C)=CCCC2(C)C)cc1` (stereo unspecified), for which the Activity with Neuron [1] is 0.61%; in the assay with Neuron [2], 12.7%; with Neuron [3], 60.91%; in the assay with Neuron [4], 25.77%.
The like results for `COc1ccccc1C(C)(O)/C=C/C1=C(C)CCCC1(C)C` (stereo unspecified) were, in that order, 0.32%, 14.5%, 19% and 66.1%.
For the compound `COc1ccc(C(C)(O)/C=C/C2C(C)=CCCC2(C)C)cc1OC` (stereo unspecified), the Activity was 0.065% in the assay with Neuron [1]; 57.36% in the assay with Neuron [5]; 38.5% in the assay on Neuron [2]; 3.9% with Neuron [3]; 57.36% in the assay on Neuron [4].
Regarding `CC1=CCCC(C)(C)C1/C=C/C(C)(O)c1ccc(C(C)(C)C)cc1` (stereo unspecified), the Activity in the assay with Neuron [1] came out at 0.05%; in the assay on Neuron [5] it was 62.1%; with Neuron [2] it was 30.4%; with Neuron [3], 7.36%; in the assay on Neuron [4] it was 62.1%.
On to `CC1=CCCC(C)(C)C1/C=C/C(C)(O)c1cc(C)ccc1C` (stereo unspecified), for which the Activity with Neuron [1] is given as 0.045%; in the assay with Neuron [5], 55.1%; in the assay with Neuron [2] it was 38.3%; in the assay with Neuron [3] it was 6.4%; with Neuron [4], 55.1%.
As to `COc1cccc(C(C)(O)/C=C/C2C(C)=CCCC2(C)C)c1` (stereo unspecified), the Activity in the assay on Neuron [1] is 3.89%; with Neuron [6] it was 61.7%; with Neuron [2], 9.4%; in the assay on Neuron [3], 61.7%; in the assay with Neuron [4], 25.02%.
As to `CC1=CCCC(C)(C)C1/C=C/C(C)(O)c1ccccc1` (stereo unspecified), the Activity was determined as 0.05% in the assay with Neuron [1]; 62.9% in the assay with Neuron [5]; 30.47% with Neuron [2]; 6.5% in the assay on Neuron [3]; 62.9% with Neuron [4].
`CSc1ccc(C(C)(O)/C=C/C2C(C)=CCCC2(C)C)cc1` (stereo unspecified): the Activity is given as 0.58% with Neuron [1], 15.43% with Neuron [2], 33.43% in the assay on Neuron [3] and 50.55% in the assay on Neuron [4].
For `CC1=CCCC(C)(C)C1/C=C/C(C)(O)c1ccsc1` (stereo unspecified), the Activity with Neuron [1] was 0.025%; with Neuron [5], 50.9%; in the assay on Neuron [2], 42.09%; in the assay on Neuron [3], 6.8%; with Neuron [4] it was 50.9%.
Consider `CCCCCOc1ccc(C(C)(O)/C=C/C2=C(C)CCCC2(C)C)cc1` (stereo unspecified), for which the Activity turned out to be 0.26% in the assay on Neuron [1], 4.02% in the assay with Neuron [2], 69.25% with Neuron [3] and 26.48% in the assay with Neuron [4].
On to `CSc1ccc(C(C)(O)/C=C/C2=C(C)CCCC2(C)C)cc1` (stereo unspecified), for which the Activity in the assay on Neuron [1] was found to be 0.21%; in the assay with Neuron [2] it was 2.5%; in the assay on Neuron [3], 66.4%; in the assay on Neuron [4], 30.89%.
On the same counts, the results for `COc1ccc(C(C)(O)/C=C/C2C(C)=CCCC2(C)C)cc1` (stereo unspecified) are 1.14%, 19.72%, 37.75% and 41.37%.
Consider `COc1cccc(C(C)(O)/C=C/C2=C(C)CCCC2(C)C)c1` (stereo unspecified), for which the Activity in the assay with Neuron [1] stood at 7.39%; with Neuron [2] it was 5.35%; with Neuron [3] it was 82.3%; in the assay with Neuron [4], 4.95%.
Consider `COc1ccccc1C(C)(O)/C=C/C1C(C)=CCCC1(C)C` (stereo unspecified), for which the Activity in the assay on Neuron [1] worked out at 0.42%; in the assay with Neuron [2], 15.2%; in the assay with Neuron [3], 44.4%; with Neuron [4] it was 39.8%.
Take `COc1ccc(C(C)(O)/C=C/C2=C(C)CCCC2(C)C)cc1` (stereo unspecified): the Activity in the assay on Neuron [1] stood at 3.42%; in the assay with Neuron [6], 75.25%; with Neuron [2], 9.06%; with Neuron [3], 75.25%; in the assay on Neuron [4], 12.2%.
As to `CCOc1ccc(C(C)(O)/C=C/C2C(C)=CCCC2(C)C)cc1` (stereo unspecified), the Activity with Neuron [1] is 1.32%; in the assay with Neuron [2], 16.3%; in the assay on Neuron [3] it was 50.8%; with Neuron [4], 31.4%.
With `CC1=CCCC(C)(C)C1/C=C/C(C)(O)c1ccc(C(F)(F)F)cc1` (stereo unspecified), the Activity with Neuron [1] is recorded as 0.057%; in the assay with Neuron [5], 72.6%; in the assay on Neuron [2], 22.23%; in the assay on Neuron [3], 5.09%; in the assay on Neuron [4] it was 72.6%.
`CCOc1ccc(C(C)(O)/C=C/C2=C(C)CCCC2(C)C)cc1` (stereo unspecified): the Activity came out at 0.93% in the assay with Neuron [1], 15.62% in the assay on Neuron [2], 33.1% with Neuron [3] and 50.34% in the assay on Neuron [4].
The like results for `C[C@]12N[C@H](Cc3ccccc31)c1ccccc12.O=C(O)/C=C\C(=O)O` [DIZOCILPINE MALEATE] were, in that order, 1.96%, 1.56%, 82.45% and 14.9%.
The like results for `COc1cc(/C=C/C(=O)CC(=O)/C=C/c2ccc(O)c(OC)c2)ccc1O` [CURCUMIN] were, in that order, 1.89%, 7.3%, 79.9% and 24.15%.
